In patent US20150238488A1, “DRUG COMPOSITION FOR TREATING TUMORS AND APPLICATION THEREOF” (priority 2012, published 2015):
Read-outs that look alike come from different tables or passages of the source.

Key:
[1] = system: peripheral blood leucocyte of a normal human being; settings: drug concentration 0.5 μg/mL to 10 μg/mL; cited from earlier work
[2] = system: human leukemia Jurkat cells; settings: cited from earlier work
[3] = system: K562/ADR leukemia transplanted tumor; test: Experiment 2-1: inhibition of leukemia transplanted tumor in nude mice (BBM, IM); type: in vivo, BALB/c-nu nude mice; settings: K562/ADR xenograft, 100 mg/kg each drug, intragastric, 2 times a day, 14 days, Day 23; for Tumor inhibition rate (%): control = 0; for Tumor weight: x ± s
Procedure: Leukemia cell lines: K562/ADR (ADM-resistant human chronic granulocytic leukemia cell line);
(§1) Animals: BALB/c-nu nude mice
(§2) Under sterile conditions, the above tumor cells were collected in the logarithmic growth phase, and were injected by subcutaneous injection in an amount of 1×10^7/0.2 mL/nude mice (cell viability>95%) into the right subaxillary of the nude mice, thus establishing leukemia transplated tumor models of in nude mice. The mice were administered from the third day after the inoculation. The treated group was intragastrically administered at the experimentally designed amount, the negative control group was intragastrically administered with sterile water, and the positive control group was intragastrically administered with IM. Each mouse was intragastrically administered in 0.4 ml each time and 2 times a day. The administrations were successive for 14 days. The day before administration was deemed as Day 0 and the body weight and tumor size of the mice were determined every 5 days to produce a dynamic plot on body weight and tumor growth. On Day 23, the mice were sacrificed and the tumors were taken out and weighed. The tumor inhibition rate (%) was calculated after the effect of the medicament based on a tumor inhibition rate of the control group being zero.

[4] = Experiment 2-1: body weight of tumor-bearing nude mice; type: in vivo, BALB/c-nu nude mice; settings: 100 mg/kg each drug, intragastric, 2 times a day, 14 days, x ± s, n=3; for Body weight (g) Final: final (Day 23)
Procedure: as §2

[5] = system: KCL-22 (chronic myeloid leukemia cell line); test: MTT cell viability, 72 h, single drugs and combination; type: cell-based; settings: Homo sapiens, read-out: CV(%) cell viability
Description: (§3) Leukemia cell lines: K562 (chronic myeloid leukemia cell line), K562/ADR (doxorubicin(ADM)-resistant human chronic granulocytic leukemia cell line), KCL-22 (chronic myeloid leukemia cell line), KCL-22 M (human chronic granulocytic leukemia cell line mutant), CML-BC (KCL-28 patient's cells), all of which are donated by Cancer Research Institute of Zhejiang University, China; KU812 (chronic myeloid leukemia cell line), purchased from Fuxiang Bio-tech Co. Ltd., Shanghai, China.
(§4) 1. […] Well-growing leukemia cells were obtained and inoculated into wells of a 96-well cell culture plate at 5000 cells/well. Respective compounds of various concentrations were added, mixed uniformly, and incubated (5% CO2) at 37° C. for 72 hours. Then the cell viability was determined by the MTT method.
(§5) 2. Determine the inhibitory effects of bisbenzylisoquinoline in combination with IM on leukemia cells in vitro. The pretreatment of the cells was the same as in a). The control group was not treated with the compound while administered. In the experimental group, compounds were added respectively to the concentration under which the IC50 (μg/mL) of the compounds in step 1 achieves. As to the combination group, the two compounds were added together into the same group of wells. After 72 hours of incubation, the MTT method was used for the determination of cell viability. The cell viability of the control group was set to 100% in this experiment, and the BBM/TTD, IM single drug and combined effects on cell viability (100%) were calculated.

[6] = system: K562/ADR (doxorubicin(ADM)-resistant human chronic granulocytic leukemia cell line); test: as above; type: cell-based; settings: read-out: CV(%) cell viability
Description: as §3, §4, §5

[7] = system: CML-BC (KCL-28 patient's cells); test: as above; type: cell-based; settings: read-out: CV(%) cell viability
Description: as §3, §4, §5

[8] = system: KU812 (chronic myeloid leukemia cell line); test: as above; type: cell-based; settings: Homo sapiens, KU812, 72 h; read-out: CV(%) cell viability
Description: as §3, §4, §5

[9] = system: K562 (chronic myeloid leukemia cell line); test: as above; type: cell-based; settings: Homo sapiens, read-out: CV(%) cell viability
Description: as §3, §4, §5

[10] = system: KCL-22 M (human chronic granulocytic leukemia cell line mutant); test: as above; type: cell-based; settings: read-out: CV(%) cell viability
Description: as §3, §4, §5

[11] = system: K562/ADR leukemia transplanted tumor; test: Experiment 2-2: inhibition of leukemia transplanted tumor in nude mice (TTD, IM); type: in vivo, BALB/c-nu nude mice; settings: K562/ADR xenograft, 50 mg/kg each drug, intragastric, 2 times a day, 14 days, Day 20; for Tumor inhibition rate (%): control = 0; for Tumor weight: x ± s
Procedure: Leukemia cell lines: K562/ADR (ADM-resistant human chronic myeloid leukemia cell line);
as §1
as §2, with “the sixth” for “the third”, “Day 20,” for “Day 23,”, “tumors are” for “tumors were”

[12] = Experiment 2-2: body weight of tumor-bearing nude mice; type: in vivo, BALB/c-nu nude mice; settings: 50 mg/kg each drug, intragastric, 2 times a day, 14 days, x ± s, n=3; for Body weight (g) Final: final (Day 20)
Procedure: as §2, with “the sixth” for “the third”, “Day 20,” for “Day 23,”, “tumors are” for “tumors were”

For `COc1cc2c3cc1Oc1c(OC)c(OC)cc4c1[C@@H](Cc1ccc(O)c(c1)Oc1ccc(cc1)C[C@@H]3N(C)CC2)N(C)CC4` [BBM, 6,6′,7-trimethoxy-2,2′-dimethylberbaman-12-ol], the cytotoxic effect [1] is given as “no evident cytotoxic effect”, the cell viability ([2]; drug concentration 0.5 μg/mL) is given as 93.69% and the cell viability ([2]; drug concentration 10 μg/mL) is given as 14.85%. For the same compound, the “Tumor inhibition rate (%)” value [3] was 63.66%, the “Tumor weight” value [3] was 0.25 ± 0.34 g and the “Body weight (g) Final” value [4] was 18.57 ± 2.28 g. The “Body weight (g) Initial” value [4] was 21.23 ± 0.23 g, the viability at 6.5 µg/mL ([5]; KCL-22, BBM 6.5 μg/mL (IC50 dose), 72 h, MTT) was 50% and the viability at 1.5 µg/mL ([6]; K562/Adr) was 46.3%. It also gave a viability at 1.5 µg/mL [7] of 54.4%, a viability at 1.5 µg/mL [8] of 51.6% and a viability at 1.6 µg/mL ([9]; K562, BBM 1.6 μg/mL (IC50 dose), 72 h, MTT) of 44.5%. For the same compound, the viability at 1.7 µg/mL ([10]; KCL-22, 72 h) was 52.4%.

With `Cc1ccc(NC(=O)c2ccc(CN3CCN(C)CC3)cc2)cc1Nc1nccc(-c2cccnc2)n1` [IM] the “Tumor inhibition rate (%)” value [11] was 12.26%, the “Tumor weight” value [11] was 0.81 ± 0.52 g and the “Tumor inhibition rate (%)” value [3] was 71.98%. For the same compound, the “Tumor weight” value [3] was 0.19 ± 0.27 g, the “Body weight (g) Final” value [12] was 18.40 ± 0.52 g and the “Body weight (g) Initial” value [12] was 21.47 ± 0.21 g. The “Body weight (g) Final” value [4] was 17.37 ± 2.75 g, the “Body weight (g) Initial” value [4] was 21.00 ± 0.12 g and the viability at 0.05 µg/mL ([5]; KCL-22, 72 h) was 51.1%. For the same compound, the viability at 0.08 µg/mL ([5]; KCL-22, IM 0.08 μg/mL (IC50 dose), 72 h, MTT) was 48.5%, the viability at 0.16 µg/mL ([6]; K562/ADR, IM 0.16 μg/mL (IC50 dose), MTT) was 42.5% and the viability at 0.2 µg/mL ([6]; K562/Adr) was 42.3%. The viability at 0.01 µg/mL [7] was 57.1%, the viability at 0.02 µg/mL [7] was 57.1% and the viability at 0.01 µg/mL [8] was 56.7%. For the same compound, the viability at 0.03 µg/mL [8] was 53.3%, the viability at 0.02 µg/mL ([9]; K562, 72 h) was 57.9% and the viability at 0.03 µg/mL ([9]; K562, 72 h) was 44.2%. It also gave a viability at 3.27 µg/mL ([10]; KCL-22 M, IM 3.27 μg/mL (IC50 dose), 72 h, MTT) of 48%.

For `COc1ccc2cc1Oc1ccc(cc1)C[C@H]1c3cc(c(OC)cc3CCN1C)Oc1c(OC)c(OC)cc3c1[C@H](C2)N(C)CC3` [TTD, 6,6′,7,12-tetramethoxy-2,2′dimethylberbamine], the “Tumor inhibition rate (%)” value [11] was 10.18%, the “Tumor weight” value [11] was 0.83 ± 0.76 g and the “Body weight (g) Final” value [12] was 18.93 ± 1.53 g. The “Body weight (g) Initial” value [12] was 21.30 ± 0.10 g.
